Data reported in patent US20060241101A1, “Novel benzimidazole derivatives and pharmaceutical compositions comprising these compounds” (priority 2003, published 2006).
Where a name gives a salt, the structure may show the parent alone.

| Structure (SMILES) | melting point [°C] |
| --- | --- |
| CCCCOC(=O)c1ccc2c(c1)ncn2-c1cccc(N2CCN(CCOC)CC2)c1 (as salt: HCl) [Compound 1g, n-Butyl 1-(3-(4-(methoxyethyl)-1-piperazinyl)-phenyl)-benzimidazole-5-carboxylate] | 148 to 152 |
| COCCOC(=O)c1ccc2c(c1)ncn2-c1cccc(N2CCN(CCOC)CC2)c1 (as salt: HCl) [Compound 1e, 2-Methoxyethyl 1-(3-(4-(methoxyethyl)-1-piperazinyl)-phenyl)-benzimidazole-5-carboxylate] | 173 to 178 |
| COCCN1CCN(c2cccc(-n3cnc4cc(C(=O)OCCO)ccc43)c2)CC1 (as salt: HCl) [Compound 1f, 2-Hydroxyethyl 1-(3-(4-(methoxyethyl)-1-piperazinyl)-phenyl)-benzimidazole-5-carboxylate] | 159 to 162 |

Second part, the compound after the results:

| melting point [°C] | Structure (SMILES) |
| --- | --- |
| 92 to 95 | CCCCOC(=O)c1ccc2c(c1)ncn2-c1cccc(N2CCN(CCOCC)CC2)c1 (as salt: HCl) [Compound 1c, n-Butyl 1-(3-(4-(ethoxyethyl)-1-piperazinyl)-phenyl)-benzimidazole-5-carboxylate] |
| 154 to 160 | CCOCCN1CCN(c2cccc(-n3cnc4cc(C(=O)OCC(C)C)ccc43)c2)CC1 (as salt: HCl) [Compound 1d, iso-Butyl 1-(3-(4-(ethoxyethyl)-1-piperazinyl)-phenyl)-benzimidazole-5-carboxylate] |
